One series deals with HCMV AD169 strain. As to the kind of experiment: microbe, parasite or virus in culture. Format: cell-based, human cytomegalovirus. The following applies: for decrease in HCMV virus titer: 96 h after infection; for reduction of HCMV viral yield: 96 h post infection; for effect on HCMV replication / yield, in words: concentrations as in the sentence or figure.
Series [1] has as its system lipid droplets in HCMV infected cells. As to the kind of experiment: lipid droplets by oil red O staining. Format: cell-based, human. The text has this:
A pair of related enzymes that are both required for HCMV replication are ADP-ribosyltransferase 1 and 3 (ART1 and ART3). Inhibition of either of these enzymes led to a marked reduction in HCMV replication, ˜40-fold for ART1 and ˜10-fold for ART3. Without being bound by any particular mechanism, although ADP-ribosyltransfer is not per se a reaction of lipid metabolism, ADP ribosylation plays a key role in regulating lipid storage via targets including the protein CtBP1/BARS. Mono-ADP ribosylation of this protein results in loss of lipid droplets due to a dramatic efflux of fatty acids.
Thus host cell components involved in lipid droplet production and consumption provide antiviral targets. In addition to siRNA against the relevant cellular machinery, other means of inhibiting lipid droplet formation include the compounds spylidone, PF-1052 (a fungal natural product isolated from Phoma species), vermisporin, beauveriolides, phenochalasins, isobisvertinol, K97-0239, and rubimaillin.
Lipid droplet formation and depletion is associated with HCMV infection. At early phase of infection (2-12 hours after infection) lipid droplets are induced within the infected cells and thereafter, a complete loss of lipid droplets is observed (48-72 hours after infection).

A further series deals with Liquid Droplet. The following applies: read-out: Liquid Droplet inhibition IC50; cited from earlier work.
Another series has as its system ACAT. The conditions noted are these: cited from earlier work.
For the next series, the system named is Liver ACAT. The following applies: cited from earlier work.
In another series the test system is HCMV. As to the kind of experiment: siRNA screen, infectious yield of HCMV. The following applies: enzyme knockdown by siRNA; fibroblasts, HCMV 0.1 pfu/cell, 96 h.
Series [2] deals with HCV JFH1 strain derivative. As to the kind of experiment: release of infectious HCV from Huh7.5 cells, TCID50 assay.
Procedure: Huh7.5 cells were infected with a derivative of HCV JFH1 strain (MOI=0.1 TCID50/cell). Infected cells were maintained in medium containing 10% fetal calf serum plus DMSO (0 nM triacsin C) or triacsin C at the indicated concentrations. Media were harvested at 72 h and infectious virus was quantified by standard TCID50 assay on Huh7.5 cells.
Virus yield in the medium at 72 h after infection was determined.
Huh7.5 cells were infected a derivative of HCV JFH1 strain (MOI=0.1 TCID50/cell) Infected cells were maintained in medium containing 10% fetal calf serum plus DMSO (0 μg/ml TOFA) or TOFA at the indicated doses. Media were harvested at 72 h and infectious virus was quantified by standard TCID50 assay on Huh7.5 cells.
Huh7.5 cells which was infected with HCV and treated with indicated amounts of TOFA (FIG. 21).
Series [3] has as its system influenza A strain WSN/33. As to the kind of experiment: influenza A replication in fibroblasts. The following applies: for effect on influenza A growth, in words: indicated amounts of drug. Format: cell-based.
In the next series the test system is MRCS human fibroblasts. As to the kind of experiment: host cell viability, morphology and toxicity in fibroblasts. The conditions noted are these: for appearance of cells: 96 h.
The subject of the next series is late viral protein pUL99. As to the kind of experiment: HCMV late viral protein expression (pUL99-GFP). Type of series: cell-based, human cytomegalovirus.
A further series has as its system adenovirus type 5. As to the kind of experiment: adenovirus replication in fibroblasts. Format: cell-based. The following applies: for effect on adenovirus replication, in words: indicated amounts of drug; for decrease in adenovirus replication / titer: MOI 1, 72 h.
A further series deals with HSV-1. As to the kind of experiment: HSV-1 replication in fibroblasts. Format: cell-based, herpes simplex virus type 1. The conditions noted are these: for effect on HSV-1 growth, in words: indicated amounts of drug.
A further series concerns the target hELOVL3 (Homo sapiens, UniProt Q9HB03). The following applies: in vitro; cited from earlier work.
For series [4] the following is noted: mice, oral, 10 mg/kg, 2 hours after treatment; cited from earlier work.
For series [5], the system named is cholesterol ester (CE) synthesis. The following applies: cited from earlier work.
Another series relates to ACSLs. The following applies: rat liver cell sonicates; cited from earlier work.
The subject of the next series is atherosclerosis. The following applies: oral, 10 mg/kg/day, two months, cited from earlier work.
Series [6] has as its system triacylglycerol (TG) synthesis. The following applies: cited from earlier work.
A further series deals with T1, hELOVL6 (Homo sapiens, UniProt Q9H5J4).
T1 sequence (Q9H5J4 1-265): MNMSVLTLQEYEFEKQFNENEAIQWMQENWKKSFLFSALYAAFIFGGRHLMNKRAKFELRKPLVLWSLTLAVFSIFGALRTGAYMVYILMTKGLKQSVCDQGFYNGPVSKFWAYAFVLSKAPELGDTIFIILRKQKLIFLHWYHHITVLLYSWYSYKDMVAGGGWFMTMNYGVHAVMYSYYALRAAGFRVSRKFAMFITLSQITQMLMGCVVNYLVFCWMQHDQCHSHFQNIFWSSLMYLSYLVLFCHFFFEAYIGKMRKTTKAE
The conditions noted are these: in vitro, cited from earlier work.

Where two headings read alike, the source gives them in different places.

Chain of hELOVL3 (Q9HB03 whole entry): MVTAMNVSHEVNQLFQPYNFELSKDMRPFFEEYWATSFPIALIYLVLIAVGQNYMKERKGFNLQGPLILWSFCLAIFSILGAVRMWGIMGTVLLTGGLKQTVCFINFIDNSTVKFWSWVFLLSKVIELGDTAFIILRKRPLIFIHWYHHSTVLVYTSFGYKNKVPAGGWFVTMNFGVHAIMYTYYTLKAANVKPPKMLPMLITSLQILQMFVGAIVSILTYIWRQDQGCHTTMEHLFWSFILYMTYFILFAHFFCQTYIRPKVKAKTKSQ
Procedure for MDCK cells: Bottom panel: Approximately 90% confluent MDCK cells were infected with WSN/33 at a multiplicity of (0.001 pfu/cell) in the presence of PBS (0 mM) or AOAA at the indicated concentrations. Virus yield in the medium at indicated times after infection was determined by standard plaque assay on MDCK cells.
Replication of influenza A (WSN/33 strain) was measured in MDCK cells at a multiplicity of infection of 0.001 particle forming unit per cell.
Procedure for MRCS human fibroblasts: Top panels: About 90% confluent MRCS human fibroblasts were treated with the indicated concentrations of triacsin C or the carrier in which the drug was dissolved (DMSO) in the presence of 10% fetal calf serum and photographed 96 h later. Bottom left panel: About 90% confluent MRCS fibroblasts were either mock infected or infected with the AD169 strain of HCMV at a multiplicity of (0.1 pfu/cell). The uninfected or infected cells received DMSO (solvent for the drug) or the drug for 96 h before cells were assayed for viability. Bottom right panel: About 90% confluent MRCS fibroblasts were infected with HCMV at a multiplicity of (0.1 pfu/cell) in the presence of DMSO (0 nM triacsin C) or triacsin C at the indicated concentrations. Infected fibroblasts were maintained in medium containing 10% fetal calf serum. Virus yield in the medium at 96 h after infection was determined by infecting fibrobalsts and assaying IE1 expression by immunofluorescence 24 h later. 96 h after infection, cells were harvested into culture medium and sonicated to release cell-associated virus. Virus yield in the medium was determined by infecting fibroblasts and assaying IE1 expression by immunofluorescence 24 h later.
The effect of triacsin C on the viability of MRCS human fibroblasts in culture medium containing 10% fetal calf serum was tested. At the time drug was added, cells were about 90% confluent.

As for `N=C(N)NCc1cccc([131I])c1` [MIBG, meta-iodo-benzylguanidine], the “inhibition of HCMV replication” value with HCMV AD169 strain (100 μM, fibroblasts) was found to be 13 fold. Moreover, the “HCMV-induced accumulation and depletion of lipid droplets” value in [1] (100 μM) is “blocked”.

Consider `COC(=O)c1c2c(c3ccccc3c1O)OC(C)(C)C=C2` [rubimaillin], for which, in the series on HCMV AD169 strain (5 μM), the “decrease in HCMV virus titer” value is reported as “approximately 85%”. Also, the “reduction of HCMV replication” value with HCMV AD169 strain (10 μM) is over 80%.

As for `CCC(C)(C)C(=O)O[C@H]1C[C@@H](C)C=C2C=C[C@H](C)[C@H](CC[C@@H]3C[C@@H](O)CC(=O)O3)[C@H]21` [simvastatin], in the series on HCMV AD169 strain (5 μM), the “decrease in HCMV virus titer” value is given as “approximately 90%”.

A word on the IC50: it is the point on the concentration scale where inhibition reaches its midpoint. Consider `CC(C)=C[C@H]1O[C@H]2[C@H]3O[C@@]34[C@H](CC[C@@]3(C)[C@@]4(O)CC[C@H]4Cc5c([nH]c6ccccc56)[C@@]43C)O[C@@H]2C(C)(C)O1` [Terpendole C], for which the IC50 in the series with Liquid Droplet was 2.5 µM.

As to `CCCCn1c(=O)c(NC(=O)Nc2c(C(C)C)cc(N)cc2C(C)C)c(-c2cccc(OCCCO)c2)c2cccnc21` [SMP-797], in the series on ACAT, the IC50 was 0.031 µM.

Take `CC(c1cc2ccccc2s1)N(O)C(N)=O` (stereo not drawn) [zileuton]: in the series on HCMV AD169 strain (100 μM), the “reduction of HCMV replication” value is listed as about 90%.

`CC(C)c1cc(C(C)C)c(CC(=O)NS(=O)(=O)Oc2c(C(C)C)cccc2C(C)C)c(C(C)C)c1` [Avasimibe]: the IC50 in the series on ACAT was 0.479 µM.

For `CCCCCCCN(Cc1ccc(CCC(C)C)cc1)C(=O)Nc1c(F)cc(F)cc1F` [CL-283,546], in the series with Liquid Droplet, the IC50 was 0.035 µM.

As for `Cc1cc(NC(=O)[C@@H]2Cc3ccc(N(C)C)cc3CN2C(=O)C(C)C)c(C)c(C)c1O` [Compound 21], the IC50 in the series with Liver ACAT was 0.113 µM.

Regarding “STX8 (sense GACUACUUCUGGCAUCCUUTT; antisense AAGGAUGCCAGAAGUAGUCTT; chemistry not given here)”, the “Fold reduction of HCMV replication” value with HCMV was 1.96 fold.

For orientation: inhibition means how much of the control response was suppressed. As to `CCC(C)[C@@H]1C(=O)/C(=C(/O)[C@@H]2[C@@H]3[C@H](C)C[C@H](C)C[C@@H]3C=C[C@@H]2[C@]2(C)O[C@H]2C)C(=O)N1C` (stereo partly drawn) [PF-1052], the “inhibition of release of infectious HCV particles” value in series [2] (5 μM) is given as 10 fold; in series [2] (10 μM), over 100 fold. Also, the “effect on influenza A growth, in words” value in series [3] is listed as “substantially inhibited”. In addition, in the series on MRCS human fibroblasts (5 and 10 μM), the “host cell toxicity by light microscopy” value is on record as “no evidence of host cell toxicity”. Moreover, in the series with late viral protein pUL99, the “HCMV late pUL99 expression, in words” value is given as “markedly reduced”. Moreover, the inhibition at 10 µM with late viral protein pUL99 (Human betaherpesvirus 5, 10 μM, read-out: inhibition of HCMV late protein synthesis) was over 99%. Further, the “effect on adenovirus replication, in words” value in the series with adenovirus type 5 was “not and not inhibited”. Also, the results for the “reduction of HCMV viral yield” value with HCMV AD169 strain (5 μM) and in the series on HCMV AD169 strain (10 μM) were over 50 fold and over 300 fold, respectively. The “reduction of HCMV yield, prolonged treatment” value in the series on HCMV AD169 strain (5 μM, medium replaced daily, 10 days after infection) is reported as over 5000 fold. The “effect on HCMV replication / yield, in words” value in the series on HCMV AD169 strain is reported as “profoundly inhibits”. Further, the “effect on HSV-1 growth, in words” value with HSV-1 is reported as “substantially inhibited”.

Turning to `Cc1[nH]n(-c2ccc(OC(F)(F)F)cc2)c(=O)c1C1(C(F)(F)F)C(=O)N(c2ccccc2)C2=C1C(=O)CC(C)(C)C2` (stereo not drawn) [Compound 37], the “toxicity on the cells” value in the series on MRCS human fibroblasts (at the antiviral doses tested) is listed as “Without inducing any toxicity”. Also, the “HCMV late pUL99 expression, in words” value with late viral protein pUL99 is “substantially reduced”. Besides, the “inhibition of HCMV replication” value in the series on HCMV AD169 strain (35 μM) was over 10 fold. In addition, the HCMV virus yield result with HCMV AD169 strain (70 μM) is “undetectable levels”. Besides, the IC50 on hELOVL3 is about 0.337 µM. Moreover, in series [4], the liver level is 50 µM and the plasma level was 30 µM.

As for `CC(C)=CCc1c([C@H](O)C2OC2(C)C)ccc2[nH]c3c(c12)C[C@@H]1CC[C@@]2(O)C(C)(C)C(=O)CC[C@]2(C)[C@@]31C` (stereo partly drawn) [Sespendole], the IC50 in the series with Liquid Droplet is 4 µM.

As to `CC(=O)Nc1nnc(S(N)(=O)=O)s1` [acetazolamide], the inhibition at 25 µM in the series on HCMV AD169 strain (Human betaherpesvirus 5, AD169, Fibroblast, read-out: inhibition of HCMV replication) was about 80%.

For `CCC/C=C/C/C=C/C=C/C=N/NN=O` [triacsin C], the “release of infectious HCV particles, in words” value in [2] (indicated amounts of drug, 72 h) is listed as “significantly reduced”. Moreover, the values for the IC50 (in series [5]; in the series with ACSLs; in series [6]) were 0.19 µM, about 8.7 µM and 0.1 µM, respectively. For the same molecule, the “effect on influenza A growth, in words” value in [3] was “substantially inhibited”. Besides, the “inhibition of influenza A replication” value in series [3] (nanomolar concentrations) is reported as over 10 fold. In addition, in the series with MRCS human fibroblasts (50 nM, presence of serum), the “viability of MRC-5 fibroblasts” value is reported as “without discrenably impacting”. Further, the appearance of cells result in the series with MRCS human fibroblasts (100 or 250 nM, 10% fetal calf serum) is given as “did not alter the appearance of cells”; in the series on MRCS human fibroblasts (≦500 nM, 10% fetal calf serum) it was “some cell rounding”. Also, the cell viability result in the series on MRCS human fibroblasts (absence of fetal calf serum, doses up to 10 μM) is given as “no discernable impact”; with MRCS human fibroblasts (doses of ≦500 nM, 10% fetal calf serum) it was “little effect”. Also, the “effect on adenovirus replication, in words” value with adenovirus type 5 is given as “not”. The progression of atherosclerosis result in the series with atherosclerosis (LDLR-/- mice) is listed as “significantly inhibited”. The toxicities result with atherosclerosis (mice) is “no significant toxicities noted”. The “reduction of yield of infectious HCMV” value in the series on HCMV AD169 strain (50 nM, presence of serum) was over 8 fold. Besides, the “reduction of yield of infectious HCMV, factor” value in the series on HCMV AD169 strain (250 nM, added with virus, 96 h, 10% serum) came to 85. Further, in the series on HCMV AD169 strain, the “effect on HCMV replication / yield, in words” value is “substantially inhibited”. Also, in the series with HCMV AD169 strain (nanomolar concentrations), the “inhibition of HCMV replication” value is over 10 fold. Besides, the “effect on HSV-1 growth, in words” value with HSV-1 is “substantially inhibited”. Further, in the series with HSV-1 (nanomolar concentrations), the “inhibition of HSV-1 replication” value is given as over 10 fold. Besides, the “depletion of lipid droplets” value in series [1] (100 nM) is recorded as over 90%. Besides, in series [1] (250 nM), the “lipid droplets by oil red O staining” value is recorded as “no detectable lipid droplets”. Moreover, in series [1] (HFF cells), the “lipid droplet formation induced by HCMV infection” value is given as “reduced lipid droplet formation”.

With `CCCCCCCCN1CCc2c(C)c(CC(=O)O)c(C)c(NC(=O)C(C)(C)C)c21` [Pactimibe], the IC50 with Liver ACAT is 0.312 µM.

Take `COc1cccc(C2(CNC(=O)Nc3c(C(C)C)cc(N)cc3C(C)C)CCN(c3ccccc3C)CC2)c1` [Compound 12g]: the IC50 in the series on ACAT was 0.068 µM.

Regarding `O=C(Nc1ccc(C(F)(F)F)cc1)N1C2CCC1CC(S(=O)(=O)c1ccccn1)C2` (stereo not drawn) [endo-1w], the IC50 on hELOVL6 (read-out: hELOVL6 IC50) was about 0.078 µM; on hELOVL6 (read-out: human ELOVL6 IC50), about 6.9 µM.

In the case of `CCC(C)[C@@H]1C(=O)C2(C[C@@H]3[C@@H]4[C@H](C)C[C@H](C)C[C@@H]4C=C[C@@H]3[C@](C)(O)[C@H]2C)C(=O)N1C` (stereo partly drawn) [Spylidone], in the series on Liquid Droplet, the IC50 was 42 µM.

For “STX6 (sense CAAGUUGUCAGGGACAUGATT; antisense UCAUGUCCCUGACAACUUGTT; chemistry not given here)”, the “Fold reduction of HCMV replication” value with HCMV was 1.92 fold.

On to `NOCC(=O)O` [AOAA, aminooxyacetic acid], for which, in the series with MDCK cells, the “host cell toxicity by light microscopy” value is reported as “no evidence of host cell toxicity”. Moreover, the “decrease in adenovirus replication / titer” value in the series on adenovirus type 5 (0.5 mM) turned out to be 20 fold; with adenovirus type 5 (1 mM), 500 fold. Besides, the “decrease in HCMV replication” value in the series on HCMV AD169 strain (0.5 mM) was 100 fold.

(Values after US9168269B2, “Inhibitors of long and very long chain fatty acid metabolism as broad spectrum anti-virals” (THE TRUSTEES OF PRINCETON UNIVERSITY, priority 2010, dated 2015).)
